Legend:
MDA-MB-231 = test: Growth inhibition of human MDA-MB-231 cells after 72 hrs by CellTiter-Glo assay; type: functional; conditions: MDA-MB-231, 72 h
[1] = biological target: T1, MDR1 (ABCB1, P-glycoprotein) (Homo sapiens, UniProt P08183); test: Activity at human MDR1 expressed in pig LLC-PK1 cells assessed as apparent permeability at 10 umol/L after 2 hrs by LC-MS/MS analysis; type: ADME, cell-based
[2] = biological target: T1, MDR1 (ABCB1, P-glycoprotein); test: Activity at human MDR1 expressed in pig LLC-PK1 cells assessed as efflux ratio of permeability from basolateral to apical side over apical to basolateral side at 10 umol/L after 2 hrs by LC-MS/MS analysis; type: ADME, cell-based

T1 sequence (P08183 whole entry): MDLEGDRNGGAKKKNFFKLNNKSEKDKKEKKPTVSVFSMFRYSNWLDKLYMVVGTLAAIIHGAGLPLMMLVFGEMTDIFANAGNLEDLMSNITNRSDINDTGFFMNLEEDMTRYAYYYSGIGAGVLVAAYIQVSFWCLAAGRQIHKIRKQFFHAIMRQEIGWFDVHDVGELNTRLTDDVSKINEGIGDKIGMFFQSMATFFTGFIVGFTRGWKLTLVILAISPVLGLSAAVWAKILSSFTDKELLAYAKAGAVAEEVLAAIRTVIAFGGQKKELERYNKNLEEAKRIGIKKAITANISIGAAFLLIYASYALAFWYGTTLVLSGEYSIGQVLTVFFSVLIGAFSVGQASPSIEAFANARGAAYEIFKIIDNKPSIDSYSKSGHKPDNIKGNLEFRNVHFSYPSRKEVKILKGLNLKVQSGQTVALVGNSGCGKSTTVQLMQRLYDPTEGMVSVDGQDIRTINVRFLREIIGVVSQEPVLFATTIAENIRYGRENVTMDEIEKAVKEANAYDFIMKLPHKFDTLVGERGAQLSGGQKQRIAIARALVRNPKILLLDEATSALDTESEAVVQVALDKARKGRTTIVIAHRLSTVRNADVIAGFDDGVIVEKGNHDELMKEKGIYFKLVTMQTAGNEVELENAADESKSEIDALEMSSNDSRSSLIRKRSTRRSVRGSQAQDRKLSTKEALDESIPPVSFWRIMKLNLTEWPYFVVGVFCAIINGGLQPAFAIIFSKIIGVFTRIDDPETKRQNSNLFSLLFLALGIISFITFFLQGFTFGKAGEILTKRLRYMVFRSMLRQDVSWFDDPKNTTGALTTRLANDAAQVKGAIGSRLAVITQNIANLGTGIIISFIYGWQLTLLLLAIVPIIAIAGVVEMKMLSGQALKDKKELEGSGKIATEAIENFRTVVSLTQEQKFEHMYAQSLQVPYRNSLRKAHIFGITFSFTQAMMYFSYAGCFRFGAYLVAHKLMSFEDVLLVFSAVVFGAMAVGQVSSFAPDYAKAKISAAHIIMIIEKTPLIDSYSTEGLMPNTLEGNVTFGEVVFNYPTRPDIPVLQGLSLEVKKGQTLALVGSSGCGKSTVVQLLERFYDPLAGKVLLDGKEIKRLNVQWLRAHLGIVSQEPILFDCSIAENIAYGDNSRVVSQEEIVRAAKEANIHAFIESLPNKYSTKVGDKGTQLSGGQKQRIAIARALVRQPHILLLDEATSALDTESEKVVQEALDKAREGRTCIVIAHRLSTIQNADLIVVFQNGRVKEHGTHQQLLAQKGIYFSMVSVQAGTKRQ

| SMILES | GI50 (MDA-MB-231) | Papp at 2 h, 10 µM [1] | efflux ratio at 2 h, 10 µM [2] |
| --- | --- | --- | --- |
| CN[C@@H](C)C(=O)N[C@H](C(=O)N1C[C@H]2CCCN2C[C@H]1C(=O)N[C@@H]1CCOc2ccccc21)C1CCCCC1 | 5.7 nM | 0.5 ×10⁻⁶ cm/s |  |
| CC[C@H](NC)C(=O)N[C@H](C(=O)N1C[C@H]2Cc3ccccc3N2C[C@H]1C(=O)N[C@@H]1CCOc2ccccc21)C1CCCCC1 | 4.4 nM | 8.6 ×10⁻⁶ cm/s |  |
| CC[C@H](NC)C(=O)N[C@H](C(=O)N1C[C@@H]2Cc3cc(Cl)cc(Cl)c3N2C[C@H]1C(=O)N[C@@H]1CCOc2ccccc21)C1CCCCC1 | 5.9 nM | 7.5 ×10⁻⁶ cm/s |  |
| CN[C@@H](C)C(=O)N[C@H](C(=O)N1C[C@@H]2CCCN2C[C@H]1C(=O)N[C@@H]1CCOc2ccccc21)C1CCCCC1 | 13 nM | 0.3 ×10⁻⁶ cm/s |  |
| CN[C@@H](C)C(=O)N[C@H](C(=O)N1C[C@H]2Cc3ccccc3N2C[C@H]1C(=O)N[C@@H]1CCOc2ccccc21)C1CCCCC1 | 15 nM | 4.1 ×10⁻⁶ cm/s |  |
| CCO[C@@H]1C[C@@H]2CN(C(=O)[C@@H](NC(=O)[C@H](C)NC)C3CCC(F)(F)CC3)[C@H](C(=O)N[C@@H]3CCOc4ccccc43)CN2C1 |  | 0.1 ×10⁻⁶ cm/s | 24 |
| CC[C@H](NC)C(=O)N[C@H](C(=O)N1C[C@H]2CCCN2C[C@H]1C(=O)N[C@@H]1CCOc2ccccc21)C1CCCCC1 | 4.6 nM |  |  |
| CC[C@H](NC)C(=O)N[C@H](C(=O)N1C[C@@H]2Cc3cc(C#N)ccc3N2C[C@H]1C(=O)N[C@@H]1CCOc2ccccc21)C1CCCCC1 | 1.9 nM | 1.4 ×10⁻⁶ cm/s |  |
| CC[C@H](NC)C(=O)N[C@H](C(=O)N1C[C@@H]2Cc3cc(Cl)ccc3N2C[C@H]1C(=O)N[C@@H]1CCOc2ccccc21)C1CCCCC1 |  | 6.4 ×10⁻⁶ cm/s |  |
| CC[C@H](NC)C(=O)N[C@H](C(=O)N1C[C@@H]2Cc3ccccc3N2C[C@H]1C(=O)N[C@@H]1CCOc2ccccc21)C1CCCCC1 | 1.8 nM | 2.5 ×10⁻⁶ cm/s |  |
